Measured values from PubChem BioAssay (NCI).
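Method: 48-hour compound exposure of cells in 96-well plates, five concentrations, linear interpolation of endpoints. TGI is the concentration that stops growth completely.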

How the values were obtained:
Test in all cases: NCI tumour cell line growth inhibition, 48 h
OVCAR-8 ovarian = tested on: OVCAR-8 ovarian
CAKI-1 renal = tested on: CAKI-1 renal
EKVX NSCLC = tested on: EKVX NSCLC
UO-31 renal = tested on: UO-31 renal
RXF-631 renal = tested on: RXF-631 renal
XF 498 CNS = tested on: XF 498 CNS
SNB-75 CNS = tested on: SNB-75 CNS
LXFL 529 NSCLC = tested on: LXFL 529 NSCLC
HT29 colon = tested on: HT29 colon
COLO 205 colon = tested on: COLO 205 colon
A549 NSCLC = tested on: A549 NSCLC
SK-OV-3 ovarian = tested on: SK-OV-3 ovarian
HCT-15 colon = tested on: HCT-15 colon
DLD-1 colon = tested on: DLD-1 colon
KM12 colon = tested on: KM12 colon
HCC-2998 colon = tested on: HCC-2998 colon
SF-268 CNS = tested on: SF-268 CNS
ACHN renal = tested on: ACHN renal
DMS 273 small cell lung = tested on: DMS 273 small cell lung
OVCAR-3 ovarian = tested on: OVCAR-3 ovarian
U251 CNS = tested on: U251 CNS
SNB-19 CNS = tested on: SNB-19 CNS
OVCAR-5 ovarian = tested on: OVCAR-5 ovarian
HCT-116 colon = tested on: HCT-116 colon
HOP-62 NSCLC = tested on: HOP-62 NSCLC
UACC-62 melanoma = tested on: UACC-62 melanoma
NCI-H226 lung = tested on: NCI-H226 lung
NCI-H23 lung = tested on: NCI-H23 lung
HOP-92 NSCLC = tested on: HOP-92 NSCLC
NCI-H522 lung = tested on: NCI-H522 lung
KM20L2 colon = tested on: KM20L2 colon
SW-620 colon = tested on: SW-620 colon
NCI-H460 lung = tested on: NCI-H460 lung
SN12C renal = tested on: SN12C renal
SK-MEL-28 melanoma = tested on: SK-MEL-28 melanoma
IGROV1 ovarian = tested on: IGROV1 ovarian
A498 renal = tested on: A498 renal
OVCAR-4 ovarian = tested on: OVCAR-4 ovarian
786-0 renal = tested on: 786-0 renal
SF-539 CNS = tested on: SF-539 CNS
K-562 leukemia = tested on: K-562 leukemia
M14 melanoma = tested on: M14 melanoma
UACC-257 melanoma = tested on: UACC-257 melanoma
SK-MEL-5 melanoma = tested on: SK-MEL-5 melanoma
MOLT-4 leukemia = tested on: MOLT-4 leukemia
M19-MEL melanoma = tested on: M19-MEL melanoma
RPMI-8226 leukemia = tested on: RPMI-8226 leukemia
MALME-3M melanoma = tested on: MALME-3M melanoma
SK-MEL-2 melanoma = tested on: SK-MEL-2 melanoma
CCRF-CEM leukemia = tested on: CCRF-CEM leukemia
DMS 114 small cell lung = tested on: DMS 114 small cell lung
MCF7 breast = tested on: MCF7 breast
NCI/ADR-RES ovarian = tested on: NCI/ADR-RES ovarian
P388/ADR leukemia = tested on: P388/ADR leukemia
HOP-18 NSCLC = tested on: HOP-18 NSCLC
SF-295 CNS = tested on: SF-295 CNS
HL-60(TB) leukemia = tested on: HL-60(TB) leukemia
RXF 393 renal = tested on: RXF 393 renal
LOX IMVI melanoma = tested on: LOX IMVI melanoma
SN12K1 renal = tested on: SN12K1 renal
P388 leukemia = tested on: P388 leukemia
SNB-78 CNS = tested on: SNB-78 CNS

## COc1ccc(/C=C/c2cc(OC)c(O[Si](C)(C)C(C)(C)C)c(OC)c2)cc1
OVCAR-8 ovarian
  TGI: > 100 µM
CAKI-1 renal
  TGI: > 100 µM
EKVX NSCLC
  TGI: > 100 µM
UO-31 renal
  TGI: > 100 µM
RXF-631 renal
  TGI: > 100 µM
XF 498 CNS
  TGI: > 100 µM
SNB-75 CNS
  TGI: > 100 µM
LXFL 529 NSCLC
  TGI: > 100 µM
HT29 colon
  TGI: > 100 µM
COLO 205 colon
  TGI: > 100 µM
A549 NSCLC
  TGI: > 100 µM
SK-OV-3 ovarian
  TGI: > 100 µM
HCT-15 colon
  TGI: > 100 µM
DLD-1 colon
  TGI: > 100 µM
KM12 colon
  TGI: > 100 µM
HCC-2998 colon
  TGI: > 100 µM
SF-268 CNS
  TGI: > 100 µM
ACHN renal
  TGI: > 100 µM
DMS 273 small cell lung
  TGI: > 100 µM
OVCAR-3 ovarian
  TGI: > 100 µM
U251 CNS
  TGI: > 100 µM
SNB-19 CNS
  TGI: > 100 µM
OVCAR-5 ovarian
  TGI: > 100 µM
HCT-116 colon
  TGI: > 100 µM
HOP-62 NSCLC
  TGI: > 100 µM
UACC-62 melanoma
  TGI: > 100 µM
NCI-H226 lung
  TGI: > 100 µM
NCI-H23 lung
  TGI: > 100 µM
HOP-92 NSCLC
  TGI: > 100 µM
NCI-H522 lung
  TGI: > 100 µM
KM20L2 colon
  TGI: > 100 µM
SW-620 colon
  TGI: > 100 µM
NCI-H460 lung
  TGI: > 100 µM
SN12C renal
  TGI: > 100 µM
SK-MEL-28 melanoma
  TGI: 86.6 µM
IGROV1 ovarian
  TGI: > 100 µM
A498 renal
  TGI: > 100 µM
OVCAR-4 ovarian
  TGI: > 100 µM
786-0 renal
  TGI: > 100 µM
SF-539 CNS
  TGI: > 100 µM
K-562 leukemia
  TGI: > 100 µM
M14 melanoma
  TGI: > 100 µM
UACC-257 melanoma
  TGI: > 100 µM
SK-MEL-5 melanoma
  TGI: > 100 µM
MOLT-4 leukemia
  TGI: > 100 µM
M19-MEL melanoma
  TGI: > 100 µM
RPMI-8226 leukemia
  TGI: > 100 µM
MALME-3M melanoma
  TGI: > 100 µM
SK-MEL-2 melanoma
  TGI: > 100 µM
CCRF-CEM leukemia
  TGI: > 100 µM
DMS 114 small cell lung
  TGI: > 100 µM

## CSCCC(NC(=O)C(Cc1ccccc1)NC(=O)CNC(=O)CNC(=O)C(N)Cc1ccc(O)cc1)C(=O)O (centres undefined)
OVCAR-8 ovarian
  TGI: > 100 µM
CAKI-1 renal
  TGI: > 100 µM
EKVX NSCLC
  TGI: > 100 µM
UO-31 renal
  TGI: > 100 µM
MCF7 breast
  TGI: > 100 µM
NCI/ADR-RES ovarian
  TGI: > 100 µM
SNB-75 CNS
  TGI: > 100 µM
HT29 colon
  TGI: > 100 µM
COLO 205 colon
  TGI: > 100 µM
A549 NSCLC
  TGI: > 100 µM
SK-OV-3 ovarian
  TGI: > 100 µM
HCT-15 colon
  TGI: > 100 µM
KM12 colon
  TGI: > 100 µM
HCC-2998 colon
  TGI: > 100 µM
SF-268 CNS
  TGI: > 100 µM
P388/ADR leukemia
  TGI: > 100 µM
DMS 273 small cell lung
  TGI: > 100 µM
OVCAR-3 ovarian
  TGI: > 100 µM
U251 CNS
  TGI: > 100 µM
SNB-19 CNS
  TGI: > 100 µM
OVCAR-5 ovarian
  TGI: > 100 µM
HOP-18 NSCLC
  TGI: > 100 µM
SF-295 CNS
  TGI: > 100 µM
HL-60(TB) leukemia
  TGI: > 100 µM
HCT-116 colon
  TGI: > 100 µM
HOP-62 NSCLC
  TGI: > 100 µM
UACC-62 melanoma
  TGI: > 100 µM
NCI-H23 lung
  TGI: > 100 µM
HOP-92 NSCLC
  TGI: > 100 µM
NCI-H522 lung
  TGI: > 100 µM
KM20L2 colon
  TGI: > 29 µM
SW-620 colon
  TGI: > 100 µM
RXF 393 renal
  TGI: > 100 µM
NCI-H460 lung
  TGI: > 100 µM
LOX IMVI melanoma
  TGI: > 100 µM
SN12K1 renal
  TGI: > 100 µM
SN12C renal
  TGI: > 100 µM
SK-MEL-28 melanoma
  TGI: > 100 µM
IGROV1 ovarian
  TGI: > 100 µM
A498 renal
  TGI: > 100 µM
OVCAR-4 ovarian
  TGI: > 100 µM
SF-539 CNS
  TGI: > 100 µM
K-562 leukemia
  TGI: > 100 µM
UACC-257 melanoma
  TGI: > 100 µM
SK-MEL-5 melanoma
  TGI: > 100 µM
P388 leukemia
  TGI: > 100 µM
MOLT-4 leukemia
  TGI: > 100 µM
SNB-78 CNS
  TGI: > 100 µM
M19-MEL melanoma
  TGI: > 100 µM
MALME-3M melanoma
  TGI: > 100 µM
SK-MEL-2 melanoma
  TGI: > 100 µM
CCRF-CEM leukemia
  TGI: > 100 µM
DMS 114 small cell lung
  TGI: > 100 µM
